Data taken from patent US7709475B2, “Selective inhibitors against Cdk4 and Cdk6 having aminothiazole skeleton” (Banyu Pharmaceutical Co., Ltd., priority 2004, dated 2010).

Tests used:
[1] = tested on: JURKAT; assay: Inhibitory action against cell proliferation (WST-8), JURKAT; format: cell-based; settings: Homo sapiens, 72 h, Jurkat cells, 3 days culture, read-out: concentration for 50% inhibition of cell proliferation (IC50), Jurkat
Method: Clinically isolated cancer cell lines EOL-1, KU812 and JURKAT were cultured in RPMI1640 medium containing 10% fetal calf serum at 37° C. in the presence of 5% CO2 under an atmosphere of saturated steam.
The inhibitory action against cell proliferation was measured by modifying the method of Skehan et al. [J. Natl. Cancer Inst., Vo. 82, 1107-1112 (1990)] according to the method of Ishiyama et al. [Talanta, Vol. 44, 1299 (1997)]. 100 μL each of cell culture medium containing 1×10^3 live cells of EOL-1, KU812 and JURKAT, respectively, was dispensed into each well of a 96-well cell culture dish, and the cells were cultured overnight. On the next day, a dilution series of solutions in DMSO was prepared from a DMSO solution of the compound of each Example. Then, the dilution series of solutions or DMSO only as a control for no drug addition were separately added to the medium for cell culture. Finally, 100 μL each of the culture medium containing either the dilution series of solutions of the compounds or DMSO only, was added to the cells which had been cultured in a 96-well dish, and then the cells were further cultured for 3 days.
After adding 20 μL each of WST-8 (Kishida Chemical Co., Ltd.) to each well and culturing the cells for another 2 hours, the optical densities at 450 nm were measured against a reference wavelength of 650 nm, and were compared with the control group. The results obtained by determining the concentrations for 50% inhibition of cell proliferation (IC50 (nM)) of the compounds of Examples are presented in the following Table 4.

[2] = biological target: T1, cyclin D2-Cdk4 (Homo sapiens, UniProt P11802); assay: Cdk4 inhibitory action: cyclin D2-Cdk4 kinase activity, 33P-ATP, RB peptide substrate; format: biochemical; settings: cyclin D2-Cdk4, 50 μM ATP
T1 construct: made in house; host or cells: insect cell Sf9 (baculovirus)
T1 sequence (P11802 whole entry): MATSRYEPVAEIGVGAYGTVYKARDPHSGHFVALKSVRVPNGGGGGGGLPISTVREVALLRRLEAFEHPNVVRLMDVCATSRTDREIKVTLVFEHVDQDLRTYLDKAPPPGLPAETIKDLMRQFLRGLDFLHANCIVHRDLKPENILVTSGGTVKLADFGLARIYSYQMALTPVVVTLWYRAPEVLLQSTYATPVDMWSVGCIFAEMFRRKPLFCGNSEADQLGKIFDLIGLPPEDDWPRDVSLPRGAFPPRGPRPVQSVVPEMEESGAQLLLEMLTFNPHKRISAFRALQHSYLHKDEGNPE
T1 sequence (P30279 whole entry partner): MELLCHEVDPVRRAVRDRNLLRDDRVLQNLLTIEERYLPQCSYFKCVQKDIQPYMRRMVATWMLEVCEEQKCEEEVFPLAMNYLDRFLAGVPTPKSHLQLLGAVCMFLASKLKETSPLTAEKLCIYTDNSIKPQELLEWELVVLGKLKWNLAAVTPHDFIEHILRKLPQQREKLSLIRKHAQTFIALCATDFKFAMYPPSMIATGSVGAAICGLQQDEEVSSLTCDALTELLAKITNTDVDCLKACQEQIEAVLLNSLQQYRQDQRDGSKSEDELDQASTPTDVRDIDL
Source text: First, the cDNA of Cdk4, and the cDNA of a fusion protein of cyclin D2, an activating factor of Cdk4, and glutathione S-transferase, were integrated into a baculovirus expression vector to prepare a recombinant baculovirus. This was co-transfected into insect cell Sf9 to express an active complex of the cyclin D2/glutathione S-transferase fusion protein-Cdk4 at a high level. The cells were recovered and solubilized, then the active complex was adsorbed onto Glutathione Sepharose, and a cyclin D2-Cdk4 complex was recovered using Precision Protease and was purified by HPLC column chromatography [EMBO J., Vol. 15, 7060-7069 (1996)].
For the measurement of the activity of cyclin D2-Cdk4, a synthetic peptide (Arg-Pro-Pro-Thr-Leu-Ser-Pro-Ile-Pro-His-Ile-Pro-Arg) corresponding to amino acid residue No. 775-787 of RB protein was used as the substrate [EMBO J., Vol. 15, 7060-7069 (1996)].
The reaction was performed by partially modifying the method of Kitagawa et al. [Oncogene, Vol. 7, 1067-1074 (1992)]. The volume of the reaction solution was 21.1 μL, and the composition of the reaction buffer (R buffer) was 20 mM Tris-hydrochloric acid buffer (pH 7.4)/10 mM magnesium chloride/4.5 mM 2-mercaptoethanol/1 mM ethylene glycol bis(β-aminoethyl ether)-N,N,N′,N′-tetraacetic acid (EGTA). To this reaction buffer, purified cyclin D2-Cdk4, 100 μM of the substrate peptide, 50 μM of non-labeled adenosine triphosphate (ATP), and 1 μCi of [γ-33P]-labeled ATP (2000 to 4000 Ci/mmole) were added to react at 30° C. for 45 minutes. Then, 10 μL of 350 mM phosphate buffer was added to the reaction system to terminate the reaction. The substrate peptide was adsorbed onto P81 paper filter on a 96-well plate, and then washed several times with 75 mM phosphate buffer. The radioactivity of the substrate peptide was measured with a liquid scintillation counter. The [γ-33P]-labeled ATP was purchased from Daiichi Pure Chemicals Co., Ltd.
Addition of the test compound to the reaction system was carried out by first preparing a dilution series of solutions of the compound in dimethylsulfoxide (DMSO), and adding 1.1 μL of the dilutions. A control was provided by adding 1.1 μL of DMSO to the reaction system.
A representative compound of the compounds according to the invention was selected, and the IC50 value of this compound for the cyclin D2-Cdk4 activity was determined.

[3] = biological target: T2, cyclin T1-Cdk9 (Homo sapiens, UniProt P50750); assay: Cdk9 inhibitory action: cyclin T1-Cdk9 kinase activity; format: biochemical; settings: cyclin T1-Cdk9, 50 μM ATP
T2 construct: made in house; host or cells: insect cell Sf9 (baculovirus)
T2 sequence (P50750 whole entry): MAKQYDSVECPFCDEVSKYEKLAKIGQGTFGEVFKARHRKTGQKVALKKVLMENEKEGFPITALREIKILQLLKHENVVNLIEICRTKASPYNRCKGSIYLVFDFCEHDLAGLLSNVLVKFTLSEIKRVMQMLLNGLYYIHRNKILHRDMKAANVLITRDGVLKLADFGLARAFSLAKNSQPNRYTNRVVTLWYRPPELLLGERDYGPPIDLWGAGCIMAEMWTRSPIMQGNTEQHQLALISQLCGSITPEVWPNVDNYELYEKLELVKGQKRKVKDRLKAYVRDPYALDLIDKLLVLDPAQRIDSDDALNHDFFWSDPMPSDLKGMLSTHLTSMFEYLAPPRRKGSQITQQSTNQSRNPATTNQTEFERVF
T2 sequence (O60563 whole entry partner): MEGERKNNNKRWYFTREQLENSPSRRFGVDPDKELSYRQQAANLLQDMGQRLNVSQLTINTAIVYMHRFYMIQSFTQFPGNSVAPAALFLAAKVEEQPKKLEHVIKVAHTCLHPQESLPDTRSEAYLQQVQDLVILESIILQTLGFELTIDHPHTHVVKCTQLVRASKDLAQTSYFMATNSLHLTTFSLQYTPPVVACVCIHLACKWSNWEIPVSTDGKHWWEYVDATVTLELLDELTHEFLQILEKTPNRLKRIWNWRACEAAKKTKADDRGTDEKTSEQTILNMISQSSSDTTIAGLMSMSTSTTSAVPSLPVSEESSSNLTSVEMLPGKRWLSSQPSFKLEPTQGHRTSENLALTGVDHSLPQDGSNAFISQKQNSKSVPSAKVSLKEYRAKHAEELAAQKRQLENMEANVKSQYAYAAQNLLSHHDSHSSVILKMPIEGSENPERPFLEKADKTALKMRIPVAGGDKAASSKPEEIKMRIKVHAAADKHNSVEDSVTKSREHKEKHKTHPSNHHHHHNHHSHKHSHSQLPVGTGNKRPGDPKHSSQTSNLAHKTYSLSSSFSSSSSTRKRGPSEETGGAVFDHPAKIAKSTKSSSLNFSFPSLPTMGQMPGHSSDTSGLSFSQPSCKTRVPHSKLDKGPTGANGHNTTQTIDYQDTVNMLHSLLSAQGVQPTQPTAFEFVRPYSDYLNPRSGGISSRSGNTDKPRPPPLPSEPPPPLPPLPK
Source text: The cDNA of Cdk9, and the cDNA of a fusion protein of cyclin T1, an activating factor of Cdk9, and glutathione S-transferase, were integrated into a baculovirus expression vector to prepare a recombinant baculovirus. This was co-transfected into insect cell Sf9 to express an active complex of the cyclin T1/glutathione S-transferase fusion protein-Cdk9 at a high level. The cells were recovered and solubilized, and the active complex was adsorbed onto Glutathione Sepharose, and then was purified by elution with 10 mM reductive glutathione. The solution containing the eluted active complex was dialyzed against B buffer (composition: 20 mM Tris-hydrochloric acid buffer (pH 7.4)/200 mM sodium chloride/0.1% Tween-20/10 mM 2-mercaptoethanol/1 mM dithiothreitol/10% glycerol) to remove the reductive glutathione.
For the measurement of the activity of cyclin T1-Cdk9, a synthetic peptide ([…] was used as the substrate.
(§1) The reaction was performed by partially modifying the method of Kitagawa et al. [Oncogene, Vol. 7, 1067-1074 (1992)]. The volume of the reaction solution was 21.1 μL, and to the R buffer, purified cyclin T1-Cdk9, 25 μM of the substrate peptide, 50 μM of non-labeled adenosine triphosphate (ATP), and 0.5 μCi of [γ-33P]-labeled ATP (2000 to 4000 Ci/mmole) were added to react at 30° C. for 20 minutes. Then, 10 μL of 350 mM phosphate buffer was added to the reaction system to terminate the reaction. The substrate peptide was adsorbed onto P81 paper filter on a 96-well plate, and then washed several times with 75 mM phosphate buffer. The radioactivity of the substrate peptide was measured with a liquid scintillation counter.
Addition of the compound according to the invention to the reaction system was carried out by first preparing a dilution series of solutions of the compound in dimethylsulfoxide (DMSO), and adding […] of the dilutions. A control was provided by adding 1.1 μL of DMSO to the reaction system.
A representative compound of the compounds according to the invention was selected, and the IC50 value (nM) of this compound for the cyclin T1-Cdk9 activity was determined.

[4] = biological target: T3, cyclin H-Cdk7 (Homo sapiens, UniProt P50613); assay: Cdk7 inhibitory action: cyclin H-Cdk7 kinase activity; format: biochemical; settings: cyclin H-Cdk7, 50 μM ATP
T3 construct: made in house; host or cells: insect cell Sf9 (baculovirus)
T3 sequence (P50613 whole entry): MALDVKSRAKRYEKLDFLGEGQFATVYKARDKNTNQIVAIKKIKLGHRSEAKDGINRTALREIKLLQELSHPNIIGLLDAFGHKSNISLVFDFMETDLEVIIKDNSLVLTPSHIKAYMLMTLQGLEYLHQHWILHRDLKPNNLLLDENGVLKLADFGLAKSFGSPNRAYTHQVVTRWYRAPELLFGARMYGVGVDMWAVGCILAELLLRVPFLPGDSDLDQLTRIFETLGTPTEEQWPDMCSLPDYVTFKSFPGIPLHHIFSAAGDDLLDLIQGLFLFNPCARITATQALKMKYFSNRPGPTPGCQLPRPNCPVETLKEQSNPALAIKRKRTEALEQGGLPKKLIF
T3 sequence (P51946 whole entry partner): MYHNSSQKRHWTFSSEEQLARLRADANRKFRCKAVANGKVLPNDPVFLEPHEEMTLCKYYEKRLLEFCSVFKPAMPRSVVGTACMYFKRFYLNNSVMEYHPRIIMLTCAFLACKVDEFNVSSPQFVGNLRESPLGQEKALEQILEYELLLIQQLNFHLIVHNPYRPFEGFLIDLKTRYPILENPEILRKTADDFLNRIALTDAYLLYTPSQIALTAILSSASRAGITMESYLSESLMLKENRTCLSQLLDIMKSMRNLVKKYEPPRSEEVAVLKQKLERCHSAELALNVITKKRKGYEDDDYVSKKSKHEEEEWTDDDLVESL
Source text: The cDNA of Cdk7, and the cDNA of a fusion protein of cyclin H, an activating factor of Cdk7, and glutathione S-transferase, were integrated into a baculovirus expression vector to prepare a recombinant baculovirus. This was co-transfected into insect cell Sf9 to express an active complex of the cyclin H/glutathione S-transferase fusion protein-Cdk7 at a high level. The cells were recovered and solubilized, then the active complex was adsorbed onto Glutathione Sepharose, and a cyclin H-Cdk7 active complex was recovered using Precision Protease.
For the measurement of the activity of cyclin H-Cdk7, a synthetic peptide ([…] was used as the substrate.
as §1, with “cyclin H-Cdk7,” for “cyclin T1-Cdk9,”, “and 1” for “and 0.5”, “for 45” for “for 20”
Addition of the compound according to the invention to the reaction system was carried out by first preparing a dilution series of solutions of the compound in dimethylsulfoxide (DMSO), and adding 1.1 μL of the dilutions. A control was provided by adding 1.1 μL of DMSO to the reaction system.
A representative compound of the compounds according to the invention was selected, and the IC50 value of this compound for the cyclin H-Cdk7 activity was determined.

IC50 [1] | IC50 [2] | IC50 [3] | IC50 [4] | SMILES
0.063 µM | 0.0088 µM | 0.25 µM | 0.83 µM | CNCc1cnc(Nc2ncc(-c3cc(C)nc(Sc4ccccc4Cl)n3)s2)cn1 [Example 107]
0.073 µM | 0.01 µM | 0.32 µM | 0.49 µM | Cc1cc(-c2cnc(Nc3cnc(CN4CCC[C@H]4CO)cn3)s2)nc(Sc2ccccc2Cl)n1 [Example 110, (2S)-5-[2-(2-chlorophenylthio)-6-methyl-4-pyrimidinyl]-2-[5-(2-hydroxymethyl-1-pyrrolidinyl)methyl-2-pyrazinyl]amino-1,3-thiazole]
0.072 µM | 0.013 µM | 0.88 µM | 0.56 µM | Cc1cc(-c2cnc(Nc3cnc(CN4CCCC4)cn3)s2)nc(Sc2ccccc2Cl)n1 [Example 113, 5-[2-(2-chlorophenylthio)-6-methyl-4-pyrimidinyl]-2-[5-(1-pyrrolidinyl)methyl-2-pyrazinyl]amino-1,3-thiazole]
0.083 µM | 0.013 µM | 1.6 µM | 0.78 µM | Cc1cc(-c2cnc(Nc3cnc(CN(C)CCO)cn3)s2)nc(Sc2ccccc2Cl)n1 [Example 114, 5-[2-(2-chlorophenylthio)-6-methyl-4-pyrimidinyl]-2-{5-[(2-hydroxyethyl)methylamino]methyl-2-pyrazinyl}amino-1,3-thiazole]
0.09 µM | 0.02 µM | 0.98 µM | 0.99 µM | Cc1cc(-c2cnc(Nc3cnc(CN4CC[C@@H](O)C4)cn3)s2)nc(Sc2ccccc2Cl)n1 [Example 118, (3R)-5-[2-(2-chlorophenylthio)-6-methyl-4-pyrimidinyl]-2-[5-(3-hydroxy-1-pyrrolidinyl)methyl-2-pyrazinyl]amino-1,3-thiazole]

The remaining lines, values behind:

SMILES | IC50 [1] | IC50 [2] | IC50 [3] | IC50 [4]
CCNCc1cnc(Nc2ncc(-c3cc(C)nc(NC4CCCCC4)n3)s2)cn1 [Example 52, 5-[2-(cyclohexylamino)-6-methyl-4-pyrimidinyl]-2-[5-(ethylamino)methyl-2-pyrazinyl]amino-1,3-thiazole] | 0.16 µM | 0.0055 µM | 0.33 µM | 0.21 µM
CCNCc1cnc(Nc2ncc(-c3cc(C)nc(Sc4ccccc4Cl)n3)s2)cn1 [Example 105, 5-[2-(2-chlorophenylthio)-6-methyl-4-pyrimidinyl]-2-[5-(ethylamino)methyl-2-pyrazinyl]amino-1,3-thiazole] |  | 0.0053 µM | 0.18 µM | 0.37 µM
Cc1cc(-c2cnc(Nc3cnc(CNC(C)C)cn3)s2)nc(Sc2ccccc2Cl)n1 [Example 106, 5-[2-(2-chlorophenylthio)-6-methyl-4-pyrimidinyl]-2-[5-(isopropylamino)methyl-2-pyrazinyl]amino-1,3-thiazole] | 0.063 µM | 0.0084 µM | 0.31 µM | 0.56 µM
